Measured values from patent US20120108532A1, “PHARMACEUTICAL COMPOSITION FOR NEUROPROTECTIVE TREATMENT IN PATIENTS WITH ICTUS COMPRISING CITICOLINE AND URIC ACID” (HOSPITAL CLINIC PROVINCIAL DE BARCELONA, priority 2009, published 2012).

Legend:
focal cerebral ischemia = conditions: adult rat; UA given 2 hours before occlusion of the middle cerebral artery or 1 hour after reperfusion; cited from earlier work
[1] = system: mixed cultures of neurons/glia; assay: Lactate dehydrogenase (LDH) release assay of cell death after oxygen and glucose deprivation (OGD); format: cell-based, rat; conditions: 100 μM, added 60 min before, during and after 90 min OGD; read 3 hours 30 minutes after OGD; FIG. 1
Experimental: Mixed cultures of neurons/glia of 18-day rat fetal embryos Sprague-Dawley were prepared as described in Petegnief, V. Saura, J. De Gregorio-Rocasolano, N., and Paul, S. M. (2001) Neuroscience 104, 223-234. The cells were suspended in minimum essential medium (MEM) supplemented by 10% fetal bovine serum and 100 μg/ml gentamicin and placed on 24-well plates previously covered with poly-L-lysine (5 μg/ml) (Nunc, Roskilde, Denmark) with a density of 0.6×10^6 cells/well and cultured at 37° C. in an incubator with 95% atmospheric air/5% CO2. The in vitro medium was partially changed on days 4, 7 and 10 (DIV) with MEM supplemented with B27. The cultures were used in 11/13 DIV. 11.9 mM uric acid was prepared in 1.35 mM lithium carbonate and 5% mannitol. […]
For the lactate dehydrogenase activity assay, cell death was estimated 3 hours 30 minutes after OGD and next lactate dehydrogenase (LDH) activity was measured released in the medium according to a modification of the method of (Wroblewski and LaDue, […]). The reduction of absorbance in 0.75 NADH to 340 nm was followed by a phosphate buffer ([…], pH 7.4) in presence of 4.2 mM pyruvic acid as substrate.

O=c1[nH]c(=O)c2[nH]c(=O)[nH]c2[nH]1 [uric acid]
resulting cerebral infarction (focal cerebral ischemia): significantly reduces the resulting cerebral infarction
cell viability in ischemic conditions (LDH activity released in the medium) [1]: did not improve the cell viability
